Read-outs that look alike come from different tables or passages of the source.

Consider 14 compounds from patent publication US20180194762A1 (Pharmacyclics LLC, priority 2017, published 2018).

Common to all, as to type: biochemical
One experiment concerns the target T1, panel of kinases (Homo sapiens, UniProt P51813).
T1 sequence (P51813 1-675): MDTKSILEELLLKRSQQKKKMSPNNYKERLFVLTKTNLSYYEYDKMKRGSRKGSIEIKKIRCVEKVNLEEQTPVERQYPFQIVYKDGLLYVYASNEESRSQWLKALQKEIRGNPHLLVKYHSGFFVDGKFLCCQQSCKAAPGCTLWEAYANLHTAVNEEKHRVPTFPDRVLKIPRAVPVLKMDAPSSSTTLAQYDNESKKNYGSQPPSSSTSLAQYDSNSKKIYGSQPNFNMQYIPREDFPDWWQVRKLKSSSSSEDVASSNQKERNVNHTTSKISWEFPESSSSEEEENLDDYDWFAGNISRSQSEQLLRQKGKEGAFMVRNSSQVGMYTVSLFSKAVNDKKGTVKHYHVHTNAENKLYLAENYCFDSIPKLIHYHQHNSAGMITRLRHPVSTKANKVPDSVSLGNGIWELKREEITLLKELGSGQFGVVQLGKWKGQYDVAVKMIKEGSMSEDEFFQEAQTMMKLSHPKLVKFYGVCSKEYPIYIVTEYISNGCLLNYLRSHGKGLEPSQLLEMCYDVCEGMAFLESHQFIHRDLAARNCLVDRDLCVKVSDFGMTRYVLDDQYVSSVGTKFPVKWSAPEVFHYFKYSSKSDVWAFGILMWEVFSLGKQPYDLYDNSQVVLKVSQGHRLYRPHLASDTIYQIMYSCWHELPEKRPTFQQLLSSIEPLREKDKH
Nature of the experiment: Inhibition of a panel of kinases (in vitro HotSpot kinase assay, 33P-ATP, 1 μM ATP), other kinases. As to conditions: BMX wild-type, read-out: BMX-WT IC50. In short, it runs like this: (§1)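 Degree of kinase inhibition is determined in vitro using isolated enzymes, a matched substrate and radiolabelled ATP (1 μM).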

The target of the next experiment is T2, Btk (Homo sapiens, UniProt Q06187).
T2 construct: purified from insect cells as a full-length construct containing a N-terminal 6X-His tag; His6 (N); made in house; host or cells: insect cells (Method C)
T2 sequence (Q06187 whole entry): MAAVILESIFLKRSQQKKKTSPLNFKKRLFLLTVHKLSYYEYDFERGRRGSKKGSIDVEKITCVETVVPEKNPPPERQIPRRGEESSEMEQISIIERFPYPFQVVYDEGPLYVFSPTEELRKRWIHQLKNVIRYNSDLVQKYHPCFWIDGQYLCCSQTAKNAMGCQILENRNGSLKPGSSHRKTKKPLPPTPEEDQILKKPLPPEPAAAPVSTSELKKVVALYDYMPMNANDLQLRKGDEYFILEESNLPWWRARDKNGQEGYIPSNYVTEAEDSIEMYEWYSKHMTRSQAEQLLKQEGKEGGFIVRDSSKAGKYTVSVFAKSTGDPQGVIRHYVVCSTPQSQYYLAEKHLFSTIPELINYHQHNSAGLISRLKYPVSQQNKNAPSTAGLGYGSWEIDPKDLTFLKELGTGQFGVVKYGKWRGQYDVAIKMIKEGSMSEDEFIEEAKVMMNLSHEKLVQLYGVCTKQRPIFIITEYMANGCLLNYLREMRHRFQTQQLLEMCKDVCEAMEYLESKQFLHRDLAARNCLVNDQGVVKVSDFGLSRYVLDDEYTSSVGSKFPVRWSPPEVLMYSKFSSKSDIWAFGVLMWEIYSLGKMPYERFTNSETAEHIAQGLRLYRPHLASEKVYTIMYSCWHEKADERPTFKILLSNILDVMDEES
Description: Btk in vitro inhibitory activity (one of Method A TR-FRET, Method B electrophoretic mobility shift, Method C radiometric filter binding). In short, it runs like this: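 Method A: TR-FRET with 0.5 nM Btk at [ATP]=Km, EDTA-quenched, 665/615 nm ratio; Ki(app) converted to IC50. Method B: 1 nM full-length His6 human BTK, 1 μM FAM peptide, pH 7.5, mobility-shift product/sum ratio, 12-point 4-parameter fit. Method C: radiometric filter binding, 8 nM His-tagged BTK, 0.2 mg/mL poly-Glu-Tyr.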
Background: In EMSA bound probe runs differently from free probe, usually more slowly.

The target in the next experiment is T3, TEC (Homo sapiens, UniProt P42680).
T3 sequence (P42680 1-631): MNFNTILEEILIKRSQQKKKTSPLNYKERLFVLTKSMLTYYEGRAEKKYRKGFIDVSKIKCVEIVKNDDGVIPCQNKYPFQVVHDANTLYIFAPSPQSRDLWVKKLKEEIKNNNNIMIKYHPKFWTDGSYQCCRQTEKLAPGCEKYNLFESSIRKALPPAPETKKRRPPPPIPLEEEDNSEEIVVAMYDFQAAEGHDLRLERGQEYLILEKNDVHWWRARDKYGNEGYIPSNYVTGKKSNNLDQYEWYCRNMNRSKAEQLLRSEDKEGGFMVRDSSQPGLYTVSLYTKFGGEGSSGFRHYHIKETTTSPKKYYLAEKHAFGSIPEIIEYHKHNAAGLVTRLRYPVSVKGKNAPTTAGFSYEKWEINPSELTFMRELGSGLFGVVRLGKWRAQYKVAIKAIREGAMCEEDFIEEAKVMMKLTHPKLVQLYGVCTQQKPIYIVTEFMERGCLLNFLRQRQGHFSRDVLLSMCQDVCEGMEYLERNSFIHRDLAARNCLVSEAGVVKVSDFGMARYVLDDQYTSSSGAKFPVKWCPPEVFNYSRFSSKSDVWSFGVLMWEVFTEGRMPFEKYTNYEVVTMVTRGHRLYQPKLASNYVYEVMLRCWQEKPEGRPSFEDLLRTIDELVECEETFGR
Description: Inhibition of a panel of kinases (in vitro HotSpot kinase assay, 33P-ATP, 1 μM ATP). As to conditions: for IC50: HotSpot kinase assay, 1 μM ATP; for TEC/Btk: ratio of TEC IC50 to Btk IC50 (selectivity). Summed up: as §1

[1] abbreviates: method is one of A, B or C, not stated which, read-out: IC50 values against Btk.
[2] abbreviates: wild-type Btk, read-out: Btk-WT IC50.

Take `C=CC(=O)N1CCC[C@@H](Nc2n[nH]c3nccc(-c4ccc(CNC(=O)c5noc(C(C)(C)C)n5)c(F)c4)c23)C1` [Example 85, 5-tert-butyl-N-{[2-fluoro-4-(3-{[(3R)-1-(prop-2-enoyl)piperidin-3-yl]amino}-1H-pyrazolo[3,4-b]pyridin-4-yl)phenyl]methyl}-1,2,4-oxadiazole-3-carboxamide]: the concentration for half-maximal inhibition (IC50) was 115 nM at panel of kinases, under 10 nM at Btk (setting [1]), 0.19 nM on Btk (setting [2]) and 110 nM against TEC. The TEC/Btk at TEC turned out to be 579.

For the compound `C=CC(=O)N1CC[C@@H](Nc2n[nH]c3nccc(-c4ccc(CNC(=O)c5ccn(C(C)(C)C)n5)c(F)c4)c23)C1` [Example 66, 1-tert-butyl-N-{[2-fluoro-4-(3-{[(3R)-1-(prop-2-enoyl)pyrrolidin-3-yl]amino}-1H-pyrazolo[3,4-b]pyridin-4-yl)phenyl]methyl}-1H-pyrazole-3-carboxamide], the IC50 at panel of kinases was 219 nM; at Btk (setting [1]) it was under 10 nM; on Btk (setting [2]), 0.42 nM; at TEC, 403 nM. The TEC/Btk at TEC was found to be 959.

With `CC#CC(=O)N1CC[C@@H](Nc2n[nH]c3nccc(-c4ccc(CNC(=O)c5ccc(OC)cc5)c(F)c4)c23)C1` [Example 112, N-{[4-(3-{[(3R)-1-(but-2-ynoyl)pyrrolidin-3-yl]amino}-1H-pyrazolo[3,4-b]pyridin-4-yl)-2-fluorophenyl]methyl}-4-methoxybenzamide], the IC50 on panel of kinases was 48 nM; on Btk (setting [1]), under 10 nM; on Btk (setting [2]) it was 4.07 nM; against TEC, 100 nM. Further, the TEC/Btk on TEC is reported as 24.

For the compound `CC#CC(=O)N1CC[C@@H](Nc2n[nH]c3nccc(-c4ccc(CNC(=O)c5cc(C(C)(C)C)on5)c(F)c4)c23)C1` [Example 111, N-{[4-(3-{[(3R)-1-(but-2-ynoyl)pyrrolidin-3-yl]amino}-1H-pyrazolo[3,4-b]pyridin-4-yl)-2-fluorophenyl]methyl}-5-tert-butyl-1,2-oxazole-3-carboxamide], the IC50 at panel of kinases is 92 nM; on Btk (setting [1]) it was under 10 nM; at Btk (setting [2]) it was 0.18 nM; against TEC it was 107 nM. In addition, on TEC, the TEC/Btk is recorded as 594.

Turning to `COC(=O)N1C[C@H](Nc2n[nH]c3nccc(-c4ccc(CNC(=O)c5noc(C(C)(C)C)n5)c(F)c4)c23)CC[C@@H]1C` [Example 226, methyl (2S,5R)-5-{[4-(4-{[(5-tert-butyl-1,2,4-oxadiazole-3-carbonyl)amino]methyl}-3-fluorophenyl)-1H-pyrazolo[3,4-b]pyridin-3-yl]amino}-2-methylpiperidine-1-carboxylate], the figures for the IC50 at panel of kinases, on Btk (setting [2]) and against TEC were 2110 nM, 1.48 nM and 1370 nM, respectively. For the same compound, the TEC/Btk on TEC came to 926.

Consider `CN1CCCN([C@@H]2CCN(c3n[nH]c4nccc(-c5ccc(CNC(=O)c6nc(C(C)(C)C)no6)c(F)c5)c34)C2)C1=O` [Example 241, 3-tert-butyl-N-[(2-fluoro-4-{3-[(3R)-3-(3-methyl-2-oxo-1,3-diazinan-1-yl)pyrrolidin-1-yl]-1H-pyrazolo[3,4-b]pyridin-4-yl}phenyl)methyl]-1,2,4-oxadiazole-5-carboxamide], for which the values for the IC50 at panel of kinases, on Btk (setting [2]) and at TEC were 5010 nM, 4.73 nM and 5560 nM, respectively. Also, the TEC/Btk at TEC was 1175.

As to `C=CC(=O)N1CC[C@@H](Nc2n[nH]c3nccc(-c4ccc(CNC(=O)c5ccc(C(=C)C)cc5)c(F)c4)c23)C1` [Compound 47, (R)—N-(4-(3-((1-acryloylpyrrolidin-3-yl)amino)-1H-pyrazolo[3,4-b]pyridin-4-yl)-2-fluorobenzyl)-4-(prop-1-en-2-yl)benzamide], the IC50 at panel of kinases came to 1830 nM; at Btk (setting [2]), 682 nM; on TEC, 2940 nM. Further, the TEC/Btk on TEC was found to be 4.

For the compound `CC(C)N1CC[C@H](Nc2n[nH]c3nccc(-c4ccc(CNC(=O)c5nc(C(C)(C)C)no5)c(F)c4)c23)C1` [Example 163, 3-tert-butyl-N-{[2-fluoro-4-(3-{[(3S)-1-(propan-2-yl)pyrrolidin-3-yl]amino}-1H-pyrazolo[3,4-b]pyridin-4-yl)phenyl]methyl}-1,2,4-oxadiazole-5-carboxamide], the half-inhibitory concentration (IC50) was over 10000 nM at panel of kinases, under 10 nM on Btk (setting [1]), 4.78 nM at Btk (setting [2]) and 9450 nM on TEC. Besides, on TEC, the TEC/Btk is on record as 1977.

`C[C@@H](NC(=O)c1cc(C(C)(C)O)on1)c1ccc(-c2ccnc3[nH]nc(N[C@@H]4CC[C@H](C)N(C(=O)N(C)C)C4)c23)cc1F` [Example 192, (2S,5R)-5-[(4-{3-fluoro-4-[(1R)-1-{[5-(2-hydroxypropan-2-yl)-1,2-oxazole-3-carbonyl]amino}ethyl]phenyl}-1H-pyrazolo[3,4-b]pyridin-3-yl)amino]-N,N,2-trimethylpiperidine-1-carboxamide]: the IC50 at panel of kinases is 3130 nM; at Btk (setting [2]), 28.6 nM; against TEC it was 3010 nM. The TEC/Btk on TEC is 105.

`C=CC(=O)N1CC[C@@H](Nc2n[nH]c3nccc(-c4ccc(CNC(=O)c5cccc(C(C)(C)C)c5)c(F)c4)c23)C1` [Compound 46, (R)—N-(4-(3-((1-acryloylpyrrolidin-3-yl)amino)-1H-pyrazolo[3,4-b]pyridin-4-yl)-2-fluorobenzyl)-3-(tert-butyl)benzamide]: the IC50 on panel of kinases is 91 nM; on Btk (setting [2]), 8.55 nM; against TEC it was 182 nM. Also, the TEC/Btk on TEC is on record as 21.

For `CC(C)(C)c1noc(C(=O)NCc2ccc(-c3ccnc4[nH]nc(N5CCC(N)CC5)c34)cc2F)n1` [Example 178, N-({4-[3-(4-aminopiperidin-1-yl)-1H-pyrazolo[3,4-b]pyridin-4-yl]-2-fluorophenyl}methyl)-3-tert-butyl-1,2,4-oxadiazole-5-carboxamide], the IC50 is 1180 nM at panel of kinases, under 10 nM at Btk (setting [1]), 0.598 nM on Btk (setting [2]) and 722 nM against TEC. Moreover, the TEC/Btk on TEC is 1207.

For `CC(C)(C)c1ccc2c(c1)CCN(Cc1ccc(-c3ccnc4[nH]nc(N[C@H]5CC[C@H](O)CC5)c34)cc1F)C2=O` [Compound 38, 6-tert-butyl-2-{[2-fluoro-4-(3-{[(11r,4r)-4-hydroxycyclohexyl]amino}-1H-pyrazolo[3,4-b]pyridin-4-yl)phenyl]methyl}-1,2,3,4-tetrahydroisoquinolin-1-one], the 50% inhibitory concentration (IC50) at panel of kinases, on Btk (setting [2]) and on TEC was over 10000 nM in each case.

In the case of `C=CC(=O)N1CCC(Cc2n[nH]c3nccc(-c4ccc(CNC(=O)c5noc(C(C)(C)C)n5)c(F)c4)c23)C1` (stereo not drawn) [Example 275, 5-tert-butyl-N-{[2-fluoro-4-(3-{[1-(prop-2-enoyl)pyrrolidin-3-yl]methyl}-1H-pyrazolo[3,4-b]pyridin-4-yl)phenyl]methyl}-1,2,4-oxadiazole-3-carboxamide], the IC50 stood at 158 nM at panel of kinases, 0.559 nM at Btk (setting [2]) and 338 nM against TEC. In addition, the TEC/Btk at TEC is recorded as 605.

Consider `CN(Cc1ccc(-c2ccnc3[nH]nc(N4CC[C@@H](N)C4)c23)cc1F)C(=O)c1nc(C(C)(C)C)no1` [Example 334, (R)-N-({4-[3-(3-aminopyrrolidin-1-yl)-1H-pyrazolo[3,4-b]pyridin-4-yl]-2-fluorophenyl}methyl)-3-tert-butyl-N-methyl-1,2,4-oxadiazole-5-carboxamide], for which the IC50 on panel of kinases stood at 1920 nM; on Btk (setting [2]) it was 1.43 nM; on TEC, 4170 nM.

Broadly, the IC50 is the concentration that inhibits the measured activity by half.
